Measured values: US7737253B2, “Human cancer stem cell culture compositions comprising Erbb2 variants and methods of use thereof” (BresaGen, Inc., priority 2006, dated 2010)
“Also recorded” adds a separate entry of the source. Each block holds one molecule with its values, some of them ahead of it.

Tests used:
[1] = test system: BG01v cells; assay: Growth of BG01v cells in defined media with Erbb2 TK inhibitors; type: cell-based, human; details: absence of an exogenous Erbb2 activating growth factor
From the text: This confirms that endogenous Erbb2 signaling is critical for the self-renewal of BG01v cells and represents a major difference between variant and normal hESCs.

[2] = test system: Erbb2Δ16-expressing cells; details: unlike wild type Erbb2-transfectants; cited from earlier work
[3] = test system: ERBB2 (phospho-Y1248); assay: Western blot of ERBB2 phospho-Y1248 in BG01 hESCs; type: cell-based, human; details: BG01 hESCs starved overnight
Experimental: BG01 hESCs were grown in DC-HAIF and then in media minus or starved of growth factors overnight, washed and then pulsed with either with heregulin (HRG) or not, or incubated with AG825 or not.
All BG01 HESC cultures were first grown in defined conditioned-heregulin/Activin A/IGF1/FGF (DC-HAIF) and then in media starved of growth factors overnight e.g., no heregulin, Activin A, IGF1 and/or FGF. […]
Cell lysates were prepared as per RTK blotting, separated by 4-20% gradient SDS-PAGE, blotted and detected with an immunoaffinity purified anti-ERBB2 (phospho-Y1248) antibody (Upstate/Millipore Cat#06229). The Erbb2 phospho-Y1248 antibody was used to quantify tyrosine phosphorylation of Erbb2 resulting from the interaction of heregulin with Erbb3 and/or ErbB4. […]

[4] = target: T1, Erbb3 (Homo sapiens, UniProt P21860); assay: Phospho-RTK antibody array, Erbb3 phosphorylation in BG01 and BG01v cells; type: cell-based; details: BG01 and BG01v cells starved overnight, then pulsed about 15 minutes with 10 ng/ml heregulin
T1 construct: endogenous in cells; host or cells: BG01 and BG01v human embryonic stem cells
Experimental: (§1) (A) BG01 and BG01v cells were grown in defined condition-heregulin/Activin A/IGF-1/FGF (DC-HAIF) media. The hESCs were starved of growth factors overnight (“Starved”), or starved then pulsed with 10 ng/ml Heregulin (“HRG pulse”). Cell lysates were prepared and examined for phosphorylation of Erbb2 and Erbb3 by RTK blotting. (B) The spots were quantified, normalized against controls, and charted as normalized relative intensity. […] While at a lower overall intensity, a similar pattern was also observed in the starved conditions.
(§2) Cells were maintained in steady state conditions in defined conditioned-heregulin/Activin A/IGF1/FGF (DC-HAIF), were incubated in media minus or starved of growth factors (e.g., no heregulin/Activin A/IGF1/FGF) overnight, or starved and then pulsed about 15 minutes with 10 ng/ml heregulin. Proteome Profiler™ human phospho-RTK antibody arrays (R&D Systems, Cat#ARY001) were used according to the manufacturer's instructions. […] The arrayed antibodies capture the extracellular domains of both phosphorylated and unphosphorylated RTKs, and bound phospho-RTKs were detected with a pan anti-phospho-tyrosine antibody conjugated to horseradish peroxidase (HRP) using chemiluminescence. X-ray film was scanned and spots were quantified using NTH-image (world wide web at rsb.info.nih.gov/nih-image/). […]

[5] = test system: Erbb2; assay: Phospho-RTK antibody array, Erbb2 phosphorylation in BG01 and BG01v cells; type: cell-based, human; details: BG01 and BG01v cells starved overnight, then pulsed about 15 minutes with 10 ng/ml heregulin
Experimental: as §1, §2

[6] = target: Erbb2 tyrosine kinase (Homo sapiens, UniProt P04626); details: cited from earlier work
[7] = test system: hESCs; assay: hESC proliferation and cell count after treatment with AG825; type: cell-based, human; details: for cell count: average of triplicate counts
Experimental: Based on the above studies described in Examples 13 and 14, further experiments were performed to quantify the number of hESCs and determine the level of inhibition of Erbb2 using AG825. […] Values reported were taken from an average of the triplicate (3) cell counts. The initial cell count was performed similarly. AG825 inhibited Erbb2 tyrosine kinase activity, thereby inhibiting cell signaling, and effectively reducing and inhibiting HESC proliferation and growth by about at least 1, 2 or 3 orders of magnitude.

[8] = target: T2, wild type Erbb2 (Homo sapiens, UniProt P04626); details: cited from earlier work
T2 construct: host or cells: transfected human cells (Castiglioni et al., 2006)

[9] = target: T3, Erbb2Δ16 (Homo sapiens, UniProt P04626, DEL634-649); details: cited from earlier work
T3 construct: host or cells: transfected human cells / Erbb2Δ16 transgene over-expression (Castiglioni et al., 2006)

[10] = target: Erbb2/3 heterodimers (Homo sapiens, UniProt P21860); details: read-out: binding affinity; cited from earlier work
[11] = target: Erbb2/4 heterodimers (Homo sapiens, UniProt Q15303); details: read-out: binding affinity; cited from earlier work

Molecule: CC(C)(C)c1cc(/C=C(\C#N)C(N)=S)cc(C(C)(C)C)c1O [AG879]
- growth of BG01v cells [1]: inhibit the growth

Molecule: COc1cc2ncnc(Nc3ccc(F)c(Cl)c3)c2cc1OCCCN1CCOCC1 [ZD1839]
- sensitivity of Erbb2Δ16-expressing cells to the drug [2]: low sensitivity

- phosphorylation of ERBB3 [4]: strong phosphorylation
Molecule: HRG: Heregulin-β EGF domain (HRGβ, Peprotech), recombinant growth factor
- Erbb2 phosphorylation detected by phospho-Y1248 antibody ([3]; 15 minute pulse with 10 ng/ml HRG1β (lane 3) or DC-HAIF media (lane 5)): increased Erbb2 phosphorylation
- phosphorylation of ERBB2 [5]: strong phosphorylation

Molecule: COc1cc(/C=C(\C#N)C(N)=O)cc(CSc2nc3ccccc3s2)c1O [AG825, Tyrphostin AG825]
- growth of BG01v cells [1]: inhibit the growth
- autophosphorylation of ERBB2 at Tyrosine-1248 ([3]; 15 minute pulse, 50 μM AG825 without or with 10 ng/ml HRG1β (lanes 2 and 4)): inhibited autophosphorylation; also recorded: inhibition of ERBB2 Y1248 phosphorylation
- selectivity as inhibitor of the Erbb2 tyrosine kinase [6]: highly selective inhibitor
- number of hESCs after treatment compared to DMSO and conditioned media (CM) control [7]: statistically significant decrease
- cell count ([7]; Experiment 1, initial cell count 560 × 10^3, CM 1.99 × 10^6, DMSO 2.13 × 10^6, P = 0.005): 406.6 × 10^3
- cell count ([7]; Experiment 2, initial cell count 853.3 × 10^3, CM 2.77 × 10^6, DMSO 2.54 × 10^6, P = 0.007): 433.3 × 10^3
- proliferation of hESCs ([7]; hESCs growing in CM): significantly inhibited proliferation

Molecule: Cc1cc(O)c2c(c1)C(=O)c1cc(O)cc(O)c1C2=O [emodin]
- growth of BG01v cells [1]: inhibit the growth
- activation of wild type Erbb2 transfectants [8]: blocked activation
- activation of Erbb2Δ16 transfectants [9]: blocked activation

Molecule: HRG-β: neuregulin-β, EGF growth factor family member; cleaved ectodomain of neuregulin
- Kd [10]: < 1 nM
- Kd [11]: < 1 nM
